From paper PMC6281413, “Inhibition of breast cancer metastasis to the lungs with UBS109” (Oncotarget, 2018)
“And” between values parts separate entries of the source, which are not always exact repeats. Equal entries are not always repeated. “Also recorded” adds a separate entry of the source. Where two headings read alike, the source gives them in different places.

Columns and labels:
[1] = tested on: human pancreatic cancer cells MiaPaca-2, ASPC-1, PT45P1 and PT45P1/asTF+; set-up: method as in doi:10.14319/ijcto.32.19; conditions: cited from earlier work; for ranking of the cytotoxic activities: four human pancreatic cancer cell lines
[2] = tested on: NCI-60 cancer cell line panel; set-up: method as in PMID 15210154, PMID 15711178, PMID 16722634; conditions: mean, read-out: mean growth inhibitory concentration GI50; cited from earlier work
[3] = tested on: MDA-MB-231 xenografts in the lungs; assay: breast cancer lung metastasis (colonization) model, MDA-MB-231 cells injected into the tail vein; format: in vivo, athymic nude mice; conditions: for Lung weight (breast tumor nodules): n=4, ± S.D., vehicle control 296.6 ± 18.8
Experimental: The effect of UBS109 administration on lung metastasis was examined in mice bearing MDA-MB-231 xenografts in the lungs. Animals were administered therapeutic regimens of UBS109 by i.p. once/day 5 days/week (M-F) for 5 weeks, in the following groups: control vehicle, UBS109 at 5 mg/kg in vehicle, and UBS109 15 mg/kg in vehicle (n = 4). […] The cancer cells were mainly found in the lungs and some other sites. […] Treatment with UBS109 15 mg/kg appears the most efficacious in inhibiting tumors (lung colonies) (Figures 2 and 3). […] Lung weight was used to assess the breast cancer colony load present in the lungs of each mouse, since it is difficult to accurately count all colonies outside and inside in each lung.
Female athymic nude mice (nu/nu, Harlan Sprague-Dawley strain; 5-6 weeks old) were housed in a pathogen-free facility. All procedures and protocols were approved by the Institutional Animal Care and Use Committee at Emory University. Mice were randomized into […]: normal group (no tumor cells injected), lung metastasis model group (vehicle control), and two UBS109-treated groups with different dosages, 5 and 15 mg/kg body weight, 4 mice in each group.
Athymic nude mice were housed in a pathogen-free facility and were intravenously injected into the tail vein with breast cancer MDA-MB-231 bone metastatic cells (10^6 cells/mouse) to result in lung metastasis (colonization). One week following injection, mice were randomized to receive either vehicle (0.5% carboxymethyl cellulose sodium [CMC] with 10% DMSO in sterile water) or drug (UBS109). The agents (vehicle, UBS109 at 5 or 15 mg/kg body weight) were administered intraperitoneally (i.p.) daily 5 days per week for 5 weeks (n = 4 mice/regimen). CMC was dissolved in distilled water and sterilized by autoclaving. Due to chemical instability, a stock solution of the drugs was made fresh each time, by weighing out 100 mg UBS109 and dissolving it in 1 mL of 100% DMSO by briefly heating before making the appropriate dilution. […] Body weights were measured once a week.

[4] = set-up: method as in PMID 24628271, PMID 23933177, doi:10.14319/ijcto.32.19; conditions: cited from earlier work
[5] = pharmacokinetic study, single i.p. dose, plasma by LC/MS/MS; format: in vivo, CD-1 mice; conditions: 15 mg/kg i.p.
Experimental: Pharmacokinetic analysis of the plasma concentration time curve for each animal was conducted using noncompartmental analysis with WinNonlin® Version 6.3.0 (Figure 5). […] This is approximately […] in the blood of mice and, given the molecular weight of UBS109 of 291.4, yields a blood concentration of approximately 1.5 μM.
A pharmacokinetic (PK) study was performed by Agilux Laboratories Inc./Charles River laboratories, Inc. (Worcester, MA, USA). Male CD-1 mice (Harlan Laboratories, Inc.) weighing 28 ± 1.6 grams were used for the PK study. Three mice were administered a single i.p. dose of UBS109 15 mg/kg in 10% DMSO and 90% PBS.
A blood sample (approximately 35–40 μL) was taken from each animal from the tail vein at 4 different time points after dosing: 0.25, 0.5, 2, and 8 h (n=3 mice/time point). Samples were collected into K2EDTA-coated Microvette tubes (Sarstedt) on wet ice (protected from light) and processed to plasma by centrifugation (3500 rpm at 5°C) within 1 hour of collection. All plasma samples were transferred into separate 96 well plates (matrix tubes) and stored at −80°C until analysis for the parent drug by Agilux Laboratories/Charles River laboratories, Inc. via LC/MS/MS.
The plasma samples (10 μL) were deproteinated with acetonitrile (80 μL) and analyzed by LC/MS/MS using an internal standard (carbutamide) spiking technique with an AB SCIEX 6500+ system equipped with a Waters Acuity BEH C18 UPLC column (2 × 50 mm, 1.7 μm) operating at 55°C with mobile phases A (95:5:0.1 H2O:CAN:FA) and B (50:50:0.1 CAN:MeOH:FA). The corresponding time courses were 1.40 and 2.10 min (%MPB 95; Flow 0.800 mL/min) followed by a 2.80 min Strong Needle Rinse (25:25:25:25:0.1 (v:v:v:v:v) MeOH:ACN:IPA:H2O:NH4OH). The verified research grade bioanalytical assay method to determine the plasma concentrations of UBS109 (RGA Level 1) employed an API 6500+ electrospray, positive ion MS/MS device. The mean, standard deviation, and %CV of plasma levels were determined using Microsoft® Office Excel 2007. Mean concentration data was plotted against time to create plasma concentration versus time profiles at each dosage (Table 2 and Figure 5).
Pharmacokinetic analysis of the plasma concentration time curve for each animal was conducted using noncompartmental analysis with WinNonlin® Version 6.3.0. Areas under the curve (AUC) were estimated using the linear trapezoidal rule. The first order rate constant (Lambda Z) associated with the terminal (log-linear) elimination phase was estimated using linear regression of at least three nonzero concentrations versus time points in the late phase of the log concentration versus time profile. The half-life (t.) was calculated as ln(2)/Lambda Z. Nominal times were used in all the data analyses.

[6] = body weight / toxicity during treatment in the lung metastasis model; format: in vivo, athymic nude mice
Experimental: Athymic nude mice were housed in a pathogen-free facility and were intravenously injected into the tail vein with breast cancer MDA-MB-231 bone metastatic cells (10^6 cells/mouse) to result in lung metastasis (colonization). One week following injection, mice were randomized to receive either vehicle (0.5% carboxymethyl cellulose sodium [CMC] with 10% DMSO in sterile water) or drug (UBS109). The agents (vehicle, UBS109 at 5 or 15 mg/kg body weight) were administered intraperitoneally (i.p.) daily 5 days per week for 5 weeks (n = 4 mice/regimen). CMC was dissolved in distilled water and sterilized by autoclaving. Due to chemical instability, a stock solution of the drugs was made fresh each time, by weighing out 100 mg UBS109 and dissolving it in 1 mL of 100% DMSO by briefly heating before making the appropriate dilution. After UBS109 administration for 5 weeks, animals were sacrificed. The lungs containing breast cancer tumors were weighed and fixed in 10% neutralized formalin for 48 h. Paraffin embedded blocks were stained with hematoxylin and eosin (H&E). Body weights were measured once a week.

[7] = tested on: MDA-MB-231 breast cancer cells; set-up: method as in PMID 24628271; conditions: at 1.25 μM, in vitro; cited from earlier work

Compound: O=C1/C(=C/c2ccccc2F)CNC/C1=C\c1ccccc1F [EF24, 3,5-bis(2-flurobenzylidene)piperidin-4-one]
- ranking of the cytotoxic activities [1]: UBS109> EF24> HSP90 inhibitor> gemcitabine> Akt inhibitor> p38 MAPK inhibitor
- GI50 [2]: 0.7 µM

Compound: CN1CC(=Cc2ccccn2)C(=O)C(=Cc2ccccn2)C1 [UBS109, 3,5-bis(2-pyridinylmethylidene)-1-methyl-4-piperidone]
- effect on lung metastasis/colonization (tumor deposition in the lungs by weight) ([3]; 15 mg/kg i.p. once daily 5 days/week for 5 weeks): significantly reduced; also recorded: significantly inhibited; also recorded: inhibited lung metastases
- Lung weight (breast tumor nodules) ([3]; UBS109 5 mg/kg i.p. once daily 5 days/week for 5 weeks): 285.9 ± 11.2 mg
- Lung weight (breast tumor nodules) ([3]; UBS109 15 mg/kg i.p. once daily 5 days/week for 5 weeks, p<0.05 vs control): 226.6 ± 19.8 mg
- water solubility relative to other MACs [4]: most water soluble among the MACs
- AUClast ([5]; individual mouse): 813 ng·h/mL and 116 ng·h/mL and 1061 ng·h/mL
- Cmax ([5]; individual mouse): 398 ng/mL and 623 ng/mL and 835 ng/mL
- Extrapolated (AUC) ([5]; individual mouse): 6.15%
- Extrapolated (AUC) ([5]; mean (only mouse 2 reported)): 6.15%
- T ½ ([5]; mean of mice (only mouse 2 reported)): 1.97 h
- approximate concentration in the blood of mice ([5]; restated from Cmax): approximately 1.5 ng/ml
- Cmax ([5]; male, CD-1, mouse, plasma, ip, 15 mg/kg, at 15 min post injection, read-out: maximal blood concentration (Cmax)): 432 ± 387 ng/mL
- AUC(0-t) ([5]; male, CD-1, mouse, plasma, ip, 15 mg/kg, mean of 3 mice): 664 ng·h/mL
- Cmax ([5]; male, CD-1, mouse, plasma, ip, 15 mg/kg, mean of 3 mice, read-out: Cmax): 619 ng/mL
- Tmax ([5]; male, CD-1, mouse, plasma, ip, read-out: time of maximal blood concentration post injection (converted)): 0.25 h
- AUC(0-inf) ([5]; male, CD-1, plasma, ip, individual mouse): 124 ng·h/mL
- half-life ([5]; male, CD-1, plasma, ip, individual mouse, read-out: T ½ (converted)): 1.97 h
- inhibition of all four pancreatic cancer cell lines ([1]; at 0.25 μM): 100%
- ranking of the cytotoxic activities [1]: UBS109> EF24> HSP90 inhibitor> gemcitabine> Akt inhibitor> p38 MAPK inhibitor
- toxicity judged from body weight ([6]; 5 or 15 mg/kg body weight i.p. once daily 5 days a week for 5 weeks): not toxic
- body weight during treatment ([6]; 5 or 15 mg/kg i.p. once daily 5 days/week for 5 weeks, versus controls): did not lose weight; also recorded: remained the same as in the other groups
- cell killing of MDA-MB-231 cells [7]: 100%

Compound: N.N.[Cl][Pt][Cl] [cisplatin]
- GI50 [2]: 9.5 µM

Compound: CC(C)c1cc(-c2n[nH]c(=O)n2-c2ccc3c(ccn3C)c2)c(O)cc1O [HSP90 inhibitor]
- ranking of the cytotoxic activities [1]: UBS109> EF24> HSP90 inhibitor> gemcitabine> Akt inhibitor> p38 MAPK inhibitor

Compound: Nc1ccn([C@@H]2O[C@H](CO)[C@@H](O)C2(F)F)c(=O)n1 [gemcitabine]
- ranking of the cytotoxic activities [1]: UBS109> EF24> HSP90 inhibitor> gemcitabine> Akt inhibitor> p38 MAPK inhibitor
- maximal killing of pancreatic cancer cells ([1]; up to 20 μM used in the test): above 50%

Compound: diferuloylmethane [curcumin]
- GI50 [2]: 7.3 µM

Compound: NC1(c2ccc(-c3nc4ccn5c(=O)[nH]nc5c4cc3-c3ccccc3)cc2)CCC1 [Akt inhibitor]
- ranking of the cytotoxic activities [1]: UBS109> EF24> HSP90 inhibitor> gemcitabine> Akt inhibitor> p38 MAPK inhibitor
